# Results as given in patent US12606544B2, “JAK1 selective kinase inhibitor” (DIZAL (JIANGSU) PHARMACEUTICAL CO., LTD., priority 2019, dated 2026).
# What was measured:
# [1] = Metabolic stability in human liver microsome; type: in vitro ADME; settings: human, pooled human liver microsomes, pH 7.4, 1 μM compound, 1 mg/mL microsomes, NADPH
# Description: (§1) Rat hepatocytes in male gender and human liver microsome were obtained from commercial vendors (e.g., BioreclamationIVT) and stored at −150° C. prior to use.
# For metabolic stability assay with human liver microsome, 1 μM of each test compound was incubated with 1 mg/mL of microsomes (Pooled HLM with 20 mg/ml protein cone) at 37° C. in 250 μL of buffer (100 mM phosphate buffer, pH-7.4) containing 1 mM NADPH solution. […] was quenched with 5 volumes chilled acetonitrile at different time points 0, 0.5, 5, 10, 15, 20 and 30 min in a fresh 96 well plate. The quench plate was centrifuged at 4000 rpm for 15 min. 40 μL of supernatant was diluted to 200 μL with pure water and analyzed using LC-MS/MS. […]
# JAK3 = target: T1, JAK3 (Homo sapiens, UniProt P52333); test: Lance Ultra Kinase Assay, recombinant JAK3; type: biochemical; settings: 5 mM ATP
# T1 construct: purchased Carna Biosciences
# T1 sequence (P52333 1-1124): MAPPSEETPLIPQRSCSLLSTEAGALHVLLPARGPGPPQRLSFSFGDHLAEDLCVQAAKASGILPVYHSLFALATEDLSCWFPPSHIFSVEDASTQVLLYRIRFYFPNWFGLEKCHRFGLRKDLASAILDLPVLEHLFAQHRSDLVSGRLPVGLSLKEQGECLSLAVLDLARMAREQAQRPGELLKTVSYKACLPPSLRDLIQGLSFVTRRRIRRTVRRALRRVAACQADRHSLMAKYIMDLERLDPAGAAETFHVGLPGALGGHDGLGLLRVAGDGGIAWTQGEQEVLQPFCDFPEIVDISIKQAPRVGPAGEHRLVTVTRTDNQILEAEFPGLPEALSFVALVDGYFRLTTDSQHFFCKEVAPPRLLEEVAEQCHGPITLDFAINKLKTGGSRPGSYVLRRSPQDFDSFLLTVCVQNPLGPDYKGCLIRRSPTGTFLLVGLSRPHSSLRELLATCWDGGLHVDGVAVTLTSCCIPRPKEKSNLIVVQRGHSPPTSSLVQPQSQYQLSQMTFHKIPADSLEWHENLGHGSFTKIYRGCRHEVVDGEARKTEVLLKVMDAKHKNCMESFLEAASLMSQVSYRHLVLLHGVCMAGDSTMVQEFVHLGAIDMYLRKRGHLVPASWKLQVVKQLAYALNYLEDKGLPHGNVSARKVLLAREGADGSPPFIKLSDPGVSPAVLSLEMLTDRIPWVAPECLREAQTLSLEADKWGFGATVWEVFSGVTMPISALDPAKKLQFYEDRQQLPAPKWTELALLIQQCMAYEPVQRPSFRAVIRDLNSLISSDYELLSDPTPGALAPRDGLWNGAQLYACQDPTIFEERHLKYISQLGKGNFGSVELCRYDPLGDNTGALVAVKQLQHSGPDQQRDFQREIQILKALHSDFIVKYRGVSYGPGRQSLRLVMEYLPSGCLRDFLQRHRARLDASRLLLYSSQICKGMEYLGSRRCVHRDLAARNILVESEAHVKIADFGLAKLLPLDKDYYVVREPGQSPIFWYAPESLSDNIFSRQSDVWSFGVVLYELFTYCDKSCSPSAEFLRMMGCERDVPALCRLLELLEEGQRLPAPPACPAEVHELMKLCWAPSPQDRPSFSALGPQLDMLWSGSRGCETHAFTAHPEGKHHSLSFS
# Description: (§2) Recombinant JAK1, JAK2, JAK3 and TYK2 purchased from Carna Biosciences. The inhibition potency of compounds against JAK1, JAK2, JAK3 and TYK2 was assessed using Lance Ultra Kinase Assay.
# (§3) In brief, recombinant kinases were pre-incubated in the presence or absence of compound at room temperature for 15 minutes. The reaction was initiated by the addition of 5 mM ATP and substrate peptide which could be phosphorylated by kinases in the reaction. After 60 minutes incubation, the reaction was stopped by the addition of the detection reagent mix containing EDTA. The fluorescence was measured at 615 nm and 665 nm, respectively with excitation wavelength at 320 nm. The calculated signal ratio of 665 nm/615 nm is proportional to the kinase activity.
# JAK1 = target: T2, JAK1 (Homo sapiens, UniProt P23458); test: Lance Ultra Kinase Assay, recombinant JAK1; type: biochemical; settings: 5 mM ATP
# T2 construct: purchased Carna Biosciences
# Description: as §2, §3
# JAK2 = target: T3, JAK2 (Homo sapiens, UniProt O60674); test: Lance Ultra Kinase Assay, recombinant JAK2; type: biochemical; settings: 5 mM ATP
# T3 construct: purchased Carna Biosciences
# Description: as §2, §3
# TYK2 = target: T4, TYK2 (Homo sapiens, UniProt P29597); test: Lance Ultra Kinase Assay, recombinant TYK2; type: biochemical; settings: 5 mM ATP
# T4 construct: purchased Carna Biosciences
# Description: as §2, §3
# phosphorylation of STAT6 = test: Cellular p-STAT6 assay, IL-13 stimulated THP-1 cells, flow cytometry; type: cell-based; settings: Homo sapiens, THP-1, THP-1 cells, IL-13 10 ng/ml; read-out: pSTAT6 IC50
# Description: To detect phosphorylated STAT6 (pSTAT6), THP-1 cells were harvested by centrifugation at 250 g for 5 min and resuspended in assay medium (RPMI1640+10% FBS) to 2×10^5 cells/well. Test compounds were applied to assay plates in serial dilution from 1 μM to 0.3 nM in DMSO. THP-1 cells were incubated with serial diluted compounds for 60 min at room temperature, followed by stimulation of interleukin (IL-13, 10 ng/ml) for 30 min, fixed in Cytofix buffer (BD Biosciences), and permeabilized in 90% methanol on ice. PE anti-pSTAT6 (BD Biosciences) antibodies were stained for 60 min at room temperature before being analyzed by flow cytometry. In the assay the compounds were thus diluted and dose-response curves for inhibition of the signal determine the IC50 for the compounds.
# [2] = Metabolic stability in rat hepatocytes; type: in vitro ADME; settings: 1 μM compound, male rat hepatocytes
# Description: as §1
# For metabolic stability assay with rat heptatocytes, vials of cryopreserved hepatocytes or microsome were removed from storage, ensured that vials remain at cryogenic temperatures. 1 μM of each test compound (in Acetonitrile; 0.01% DMSO) was incubated with 250 μL of hepatocyte cells (1×10^6 cells/ml) in a 96 deep well plate. […] 40 μL of supernatant was diluted to 200 μL with pure water and analyzed using LC-MS/MS.
# In vitro hepatocyte clearance was estimated based on determination of elimination half-life (T1/2) of compounds disappearance from their initial concentrations. Peak area ratios of each compound (test or control) to IS was calculated. Ln (% Control) versus Incubation Time (min) curve was plotted, and the slope of a linear fitting line was calculated. Drug elimination rate constant k (min−1), T1/2 (min), and in vitro intrinsic clearance CLint (μL/min/E6) was calculated according to the following equations: k=−slope T1/2=0.693/k CLint=k/Chep Where Chep (cells×μL^−1) is the cell concentration in the incubation system.
# T2 sequence (P23458 whole entry): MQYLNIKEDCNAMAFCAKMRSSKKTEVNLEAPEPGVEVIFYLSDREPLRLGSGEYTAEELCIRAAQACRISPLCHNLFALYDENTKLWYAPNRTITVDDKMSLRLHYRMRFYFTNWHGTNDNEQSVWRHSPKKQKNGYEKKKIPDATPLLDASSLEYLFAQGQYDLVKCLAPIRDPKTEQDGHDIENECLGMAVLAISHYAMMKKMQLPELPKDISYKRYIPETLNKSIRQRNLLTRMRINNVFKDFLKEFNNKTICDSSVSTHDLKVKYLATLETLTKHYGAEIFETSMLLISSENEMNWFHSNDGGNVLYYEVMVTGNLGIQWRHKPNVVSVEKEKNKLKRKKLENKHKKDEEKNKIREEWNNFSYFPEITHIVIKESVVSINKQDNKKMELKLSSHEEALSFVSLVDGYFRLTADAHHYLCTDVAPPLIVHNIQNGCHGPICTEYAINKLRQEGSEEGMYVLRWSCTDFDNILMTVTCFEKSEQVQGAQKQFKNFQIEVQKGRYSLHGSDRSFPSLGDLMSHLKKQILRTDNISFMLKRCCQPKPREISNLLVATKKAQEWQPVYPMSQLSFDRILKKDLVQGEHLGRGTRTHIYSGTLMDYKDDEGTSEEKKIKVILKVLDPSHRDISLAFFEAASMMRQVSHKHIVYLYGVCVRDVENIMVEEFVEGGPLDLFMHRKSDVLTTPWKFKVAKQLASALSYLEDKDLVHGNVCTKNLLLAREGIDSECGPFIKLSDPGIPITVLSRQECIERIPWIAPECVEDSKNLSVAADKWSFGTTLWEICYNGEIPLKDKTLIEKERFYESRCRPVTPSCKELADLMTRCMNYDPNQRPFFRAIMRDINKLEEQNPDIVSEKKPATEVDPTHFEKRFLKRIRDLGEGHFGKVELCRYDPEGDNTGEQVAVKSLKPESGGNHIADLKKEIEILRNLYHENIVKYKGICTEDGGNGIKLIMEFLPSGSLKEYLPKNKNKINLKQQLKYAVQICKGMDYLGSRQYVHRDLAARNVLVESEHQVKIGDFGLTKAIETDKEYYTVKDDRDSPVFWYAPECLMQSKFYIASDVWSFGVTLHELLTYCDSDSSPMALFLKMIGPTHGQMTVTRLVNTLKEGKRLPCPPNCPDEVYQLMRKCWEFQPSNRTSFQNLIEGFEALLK
# T4 sequence (P29597 whole entry): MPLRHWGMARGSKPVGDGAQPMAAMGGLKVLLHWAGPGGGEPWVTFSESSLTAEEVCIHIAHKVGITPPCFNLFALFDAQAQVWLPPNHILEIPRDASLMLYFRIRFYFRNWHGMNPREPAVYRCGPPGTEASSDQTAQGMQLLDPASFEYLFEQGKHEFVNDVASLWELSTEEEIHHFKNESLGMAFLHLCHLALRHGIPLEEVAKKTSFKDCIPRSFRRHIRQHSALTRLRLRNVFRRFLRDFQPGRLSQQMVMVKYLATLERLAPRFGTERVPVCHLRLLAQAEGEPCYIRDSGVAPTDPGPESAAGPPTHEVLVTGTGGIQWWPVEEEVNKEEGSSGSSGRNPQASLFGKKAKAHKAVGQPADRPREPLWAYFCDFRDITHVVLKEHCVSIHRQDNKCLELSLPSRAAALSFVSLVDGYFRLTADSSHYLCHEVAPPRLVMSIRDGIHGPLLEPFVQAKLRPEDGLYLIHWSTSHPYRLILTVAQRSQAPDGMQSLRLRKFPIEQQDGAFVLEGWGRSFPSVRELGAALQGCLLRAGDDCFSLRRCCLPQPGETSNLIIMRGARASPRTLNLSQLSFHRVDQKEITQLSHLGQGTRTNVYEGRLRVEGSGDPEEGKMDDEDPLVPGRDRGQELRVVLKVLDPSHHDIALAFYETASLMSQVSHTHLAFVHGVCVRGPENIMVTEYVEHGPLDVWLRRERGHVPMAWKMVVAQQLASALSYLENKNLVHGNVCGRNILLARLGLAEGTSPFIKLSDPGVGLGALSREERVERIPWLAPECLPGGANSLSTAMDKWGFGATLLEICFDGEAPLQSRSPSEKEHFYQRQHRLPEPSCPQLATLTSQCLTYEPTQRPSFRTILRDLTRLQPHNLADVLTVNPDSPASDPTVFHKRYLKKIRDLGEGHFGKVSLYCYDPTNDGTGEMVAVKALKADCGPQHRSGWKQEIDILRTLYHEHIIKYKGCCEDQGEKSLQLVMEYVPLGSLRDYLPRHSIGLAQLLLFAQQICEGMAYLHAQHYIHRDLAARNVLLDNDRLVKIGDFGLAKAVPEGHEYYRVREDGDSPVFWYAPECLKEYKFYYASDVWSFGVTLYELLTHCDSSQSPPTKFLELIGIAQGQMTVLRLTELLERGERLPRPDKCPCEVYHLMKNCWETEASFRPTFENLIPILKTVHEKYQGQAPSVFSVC
# T3 sequence (O60674 whole entry): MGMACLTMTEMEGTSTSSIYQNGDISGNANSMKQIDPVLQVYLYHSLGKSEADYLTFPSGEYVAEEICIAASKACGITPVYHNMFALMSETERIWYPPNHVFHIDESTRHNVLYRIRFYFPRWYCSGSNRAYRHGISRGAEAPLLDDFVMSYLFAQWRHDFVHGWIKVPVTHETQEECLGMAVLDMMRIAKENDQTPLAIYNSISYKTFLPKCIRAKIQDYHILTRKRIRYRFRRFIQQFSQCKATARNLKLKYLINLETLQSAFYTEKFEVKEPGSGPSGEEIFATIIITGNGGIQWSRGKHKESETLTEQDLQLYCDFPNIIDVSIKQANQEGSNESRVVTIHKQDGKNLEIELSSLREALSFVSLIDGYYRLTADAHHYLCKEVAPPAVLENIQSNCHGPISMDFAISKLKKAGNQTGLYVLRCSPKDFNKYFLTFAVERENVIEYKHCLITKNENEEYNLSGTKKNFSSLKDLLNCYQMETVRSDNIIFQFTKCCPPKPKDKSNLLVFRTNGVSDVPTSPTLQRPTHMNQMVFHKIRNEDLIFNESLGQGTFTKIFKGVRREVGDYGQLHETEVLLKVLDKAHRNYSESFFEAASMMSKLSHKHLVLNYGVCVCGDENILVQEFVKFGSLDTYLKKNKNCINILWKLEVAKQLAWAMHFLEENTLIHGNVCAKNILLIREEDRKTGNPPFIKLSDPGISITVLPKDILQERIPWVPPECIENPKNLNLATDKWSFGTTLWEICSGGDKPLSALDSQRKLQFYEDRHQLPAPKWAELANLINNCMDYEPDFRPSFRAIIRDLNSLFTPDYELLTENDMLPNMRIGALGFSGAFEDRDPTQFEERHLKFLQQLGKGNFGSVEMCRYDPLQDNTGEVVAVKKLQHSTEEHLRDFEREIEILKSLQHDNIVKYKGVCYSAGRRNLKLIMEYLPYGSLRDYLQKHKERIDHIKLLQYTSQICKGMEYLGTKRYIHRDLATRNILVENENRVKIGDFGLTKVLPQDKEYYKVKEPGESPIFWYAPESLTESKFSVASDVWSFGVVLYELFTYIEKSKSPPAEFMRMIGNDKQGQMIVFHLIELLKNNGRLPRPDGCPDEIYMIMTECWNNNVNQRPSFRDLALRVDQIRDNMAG
smiles,measurement,setting,value
"COC[C@H](C(=O)Nc1cccc2c(-c3nc(Nc4ccc5c(C)n[nH]c5c4)ncc3F)c[nH]c12)N1CCN(C)CC1 [Example 17, (R)-N-(3-(5-fluoro-2-((3-methyl-1H-indazol-6-yl)amino)pyrimidin-4-yl)-1H-indol-7-yl)-3-methoxy-2-(4-methylpiperazin-1-yl)propanamide]",microsomal CLint at 1 μM,[1],57.2 µL/min/mg
same,IC50,JAK3,7740 nM
same,IC50,JAK1,0.18 nM
same,IC50,JAK2,43 nM
same,IC50,TYK2,1210 nM
same,IC50,phosphorylation of STAT6,7.6 nM
same,Rat Hepatocyte CLint,[2],4.5 μL/min/10^6 cells
"COC[C@H](C(=O)Nc1cccc2c(-c3nc(Nc4ccc5c(c4)NC(=O)C5)ncc3F)c[nH]c12)N1CCN(C)CC1 [Example 37, (R)-N-(3-(5-fluoro-2-((2-oxoindolin-6-yl)amino)pyrimidin-4-yl)-1H-indol-7-yl)-3-methoxy-2-(4-methylpiperazin-1-yl)propanamide]",microsomal CLint at 1 μM,[1],11.7 µL/min/mg
same,IC50,JAK3,4760 nM
same,IC50,JAK1,0.21 nM
same,IC50,JAK2,68 nM
same,IC50,TYK2,996 nM
same,IC50,phosphorylation of STAT6,11.5 nM
same,Rat Hepatocyte CLint,[2],6.3 μL/min/10^6 cells
"COC[C@H](C(=O)Nc1cccc2c(-c3nc(Nc4ccc(CO)cn4)ncc3F)c[nH]c12)N1CCN(C)CC1 [Example 59, (R)-N-(3-(5-fluoro-2-((5-(hydroxymethyl)pyridin-2-yl)amino)pyrimidin-4-yl)-1H-indol-7-yl)-3-methoxy-2-(4-methylpiperazin-1-yl)propanamide]",microsomal CLint at 1 μM,[1],10.7 µL/min/mg
same,IC50,JAK3,> 10000 nM
same,IC50,JAK1,131 nM
same,IC50,JAK2,2220 nM
same,IC50,TYK2,> 10000 nM
same,IC50,phosphorylation of STAT6,17.4 nM
same,Rat Hepatocyte CLint,[2],>300 μL/min/10^6 cells
"COC[C@H](C(=O)Nc1cccc2c(-c3nc(Nc4ccnc(C(=O)OC)c4)ncc3F)c[nH]c12)N1CCN(C)CC1 [Example 4, Methyl-(R)-4-((5-fluoro-4-(7-(3-methoxy-2-(4-methylpiperazin-1-yl)propanamido)-1H-indol-3-yl)pyrimidin-2-yl)amino)picolinate]",microsomal CLint at 1 μM,[1],14.4 µL/min/mg
same,IC50,JAK3,> 10000 nM
same,IC50,JAK1,0.26 nM
same,IC50,JAK2,81 nM
same,IC50,TYK2,1830 nM
same,IC50,phosphorylation of STAT6,5.1 nM
same,Rat Hepatocyte CLint,[2],>300 μL/min/10^6 cells
"COC[C@H](C(=O)Nc1cccc2c(-c3nc(Nc4ccc5c(c4)C(=O)OCC5)ncc3F)c[nH]c12)N1CCN(C)CC1 [Example 64, (R)-N-(3-(5-fluoro-2-((1-oxoisochroman-7-yl)amino)pyrimidin-4-yl)-1H-indol-7-yl)-3-methoxy-2-(4-methylpiperazin-1-yl)propanamide]",microsomal CLint at 1 μM,[1],21.9 µL/min/mg
same,IC50,JAK3,> 10000 nM
same,IC50,JAK1,0.14 nM
same,IC50,JAK2,22 nM
same,IC50,TYK2,512 nM
same,IC50,phosphorylation of STAT6,18.4 nM
same,Rat Hepatocyte CLint,[2],4.0 μL/min/10^6 cells
"COC[C@H](C(=O)Nc1cccc2c(-c3nc(Nc4cnc(C(=O)OC)c(C)c4)ncc3F)c[nH]c12)N1CCN(C)CC1 [Example 57, methyl (R)-5-((5-fluoro-4-(7-(3-methoxy-2-(4-methylpiperazin-1-yl)propanamido)-1H-indol-3-yl)pyrimidin-2-yl)amino)-3-methylpicolinate]",microsomal CLint at 1 μM,[1],> 300 µL/min/mg
same,IC50,JAK3,> 10000 nM
same,IC50,JAK1,0.16 nM
same,IC50,JAK2,44 nM
same,IC50,TYK2,922 nM
same,IC50,phosphorylation of STAT6,16 nM
same,Rat Hepatocyte CLint,[2],24.0 μL/min/10^6 cells
"COC[C@H](C(=O)Nc1cccc2c(-c3nc(Nc4ccc5c(c4)C(=O)NCC5)ncc3F)c[nH]c12)N1CCN(C)CC1 [Example 35, (R)-N-(3-(5-fluoro-2-((1-oxo-1,2,3,4-tetrahydroisoquinolin-7-yl)amino)pyrimidin-4-yl)-1H-indol-7-yl)-3-methoxy-2-(4-methylpiperazin-1-yl)propanamide]",microsomal CLint at 1 μM,[1],9.2 µL/min/mg
same,IC50,JAK3,> 10000 nM
same,IC50,JAK1,0.26 nM
same,IC50,JAK2,199 nM
same,IC50,TYK2,2040 nM
same,IC50,phosphorylation of STAT6,11.3 nM
same,Rat Hepatocyte CLint,[2],2.2 μL/min/10^6 cells
"COC[C@H](C(=O)Nc1cccc2c(-c3nc(Nc4ccc(C(=O)OC)nc4)ncc3F)c[nH]c12)N1CCN(C)CC1 [Example 12, methyl (R)-5-((5-fluoro-4-(7-(3-methoxy-2-(4-methylpiperazin-1-yl)propanamido)-1H-indol-3-yl)pyrimidin-2-yl)amino)picolinate]",microsomal CLint at 1 μM,[1],> 300 µL/min/mg
same,IC50,JAK3,> 10000 nM
same,IC50,JAK1,0.17 nM
same,IC50,JAK2,469 nM
same,IC50,TYK2,3770 nM
same,IC50,phosphorylation of STAT6,7.2 nM
same,Rat Hepatocyte CLint,[2],226.4 μL/min/10^6 cells
"COC[C@H](C(=O)Nc1cccc2c(-c3nc(Nc4ccnc(CCC(=O)OC)c4)ncc3F)c[nH]c12)N1CCN(C)CC1 [Example 15, methyl (R)-3-(4-((5-fluoro-4-(7-(3-methoxy-2-(4-methylpiperazin-1-yl)propanamido)-1H-indol-3-yl)pyrimidin-2-yl)amino)pyridin-2-yl)propanoate]",microsomal CLint at 1 μM,[1],> 300 µL/min/mg
same,IC50,JAK3,> 10000 nM
same,IC50,JAK1,0.19 nM
same,IC50,JAK2,20 nM
same,IC50,TYK2,1440 nM
same,IC50,phosphorylation of STAT6,7.3 nM
same,Rat Hepatocyte CLint,[2],68.0 μL/min/10^6 cells
"COC[C@H](C(=O)Nc1cccc2c(-c3nc(Nc4cncc(O)c4)ncc3F)c[nH]c12)N1CCN(C)CC1 [Example 28, (R)-N-(3-(5-fluoro-2-((5-hydroxypyridin-3-yl)amino)pyrimidin-4-yl)-1H-indol-7-yl)-3-methoxy-2-(4-methylpiperazin-1-yl)propanainide]",IC50,JAK3,> 10000 nM
same,IC50,JAK1,0.12 nM
same,IC50,JAK2,162 nM
same,IC50,TYK2,1180 nM
same,IC50,phosphorylation of STAT6,9.6 nM
"COC[C@H](C(=O)Nc1cccc2c(-c3nc(Nc4cncc(C(=O)OC)c4)ncc3F)c[nH]c12)N1CCN(C)CC1 [Example 21, methyl (R)-5-((5-fluoro-4-(7-(3-methoxy-2-(4-methylpiperazin-1-yl)propanamido)-1H-indol-3-yl)pyrimidin-2-yl)amino)nicotinate]",IC50,JAK3,> 10000 nM
same,IC50,JAK1,0.2 nM
same,IC50,JAK2,125 nM
same,IC50,TYK2,1150 nM
same,IC50,phosphorylation of STAT6,8.4 nM
